3 compounds from patent publication US6683060B2, “Matrix metalloproteinase and tumor necrosis factor inhibitors” (Advanced Gene Technology Corp., priority 2002, dated 2004) can be followed below.

One assay addresses T1, MMP-2 (Homo sapiens, UniProt P08253).
T1 construct: The purified enzyme was already an active form with a molecular weight of about 64K; endogenous in cells; host or cells: ES-2 human ovarian carcinoma cells (secreted into serum-free conditioned medium; purified on gelatin-Sepharose 4B)
T1 sequence (P08253 110-660): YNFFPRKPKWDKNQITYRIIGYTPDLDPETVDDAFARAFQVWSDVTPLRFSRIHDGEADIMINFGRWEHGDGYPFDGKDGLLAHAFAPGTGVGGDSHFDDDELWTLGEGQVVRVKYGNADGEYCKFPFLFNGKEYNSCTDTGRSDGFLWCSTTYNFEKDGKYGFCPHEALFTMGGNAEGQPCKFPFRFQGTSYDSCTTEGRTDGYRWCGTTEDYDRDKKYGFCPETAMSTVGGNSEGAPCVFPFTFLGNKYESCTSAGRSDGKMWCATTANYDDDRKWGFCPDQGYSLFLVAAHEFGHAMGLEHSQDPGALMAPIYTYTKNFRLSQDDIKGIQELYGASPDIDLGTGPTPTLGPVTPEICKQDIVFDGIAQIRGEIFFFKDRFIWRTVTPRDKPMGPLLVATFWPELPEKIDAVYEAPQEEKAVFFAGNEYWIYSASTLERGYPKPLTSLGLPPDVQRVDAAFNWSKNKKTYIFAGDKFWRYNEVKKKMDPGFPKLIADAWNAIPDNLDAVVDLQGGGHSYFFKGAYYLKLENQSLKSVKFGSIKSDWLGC
In words: Inhibition of MMP-2 gelatinase activity on microtiter plates (biotinylated gelatin hydrolysis). It is filed as biochemical. The protocol:
The MMP-2 enzyme was obtained from cancer cells and then purified by using gelatin-Sephose 4B (Pharmacia). Serum-free conditioned medium from human ovarian carcinoma cells, ES-2, was concentrated 50-fold and then MMP-2 enzyme was obtained by ultrafiltration using a 30,000 MW (molecular weight) cut-off membrane (YM-30, Amicon). The affinity matrix was equilibrated with an equilibration buffer, which was composed of 50 mM Tris.HCl (pH7.6), 10 mM EDTA and 0.01% Tween 20, containing 0.5 M NaCl. After extensive washing with the equilibration buffer containing 0.5 M NaCl, the bound enzyme was eluted with the equilibration buffer containing 1 M NaCl. […]
The plates were then read at 450 nm (reference length 470 nm) in a microtiter plate reader (Dynex, MRX). The absorbance at 450 nm […] as the concentration of MMP-2 […]. […] Therefore, in the reaction of BG with MMP-2, the absorbance should be a factor 3-5 times lower than an absorbance reading of BG without MMP-2 enzyme (a gelatinase). […]
The effect of Compound 1 on MMP-2 activity was measured by basically the same procedure as described in the section, GELATINASE ASSAY ON MICROTITER PLATES. As Compound 1 was similar to uridine in chemical structure, the effect of a commercial available uridine (Sigma, U-3750, D-Ribose) on MMP-2 activity was also measured for comparison in the experiment. […]

Assay [1] has as its system ES-2, COLO205, PC-3, A375, and A549 cell lines. In words: Proliferation/cytotoxicity assay on cancer cell lines (XTT assay). Conditions: 72 hours exposure, five cancer cell lines; for cellular viability (XTT assay): serially two-fold diluted from 0.258 mg/ml, data not shown. In kind it is cell-based, human. An excerpt:
Five cancer-derived cell lines obtained from the American Type Culture Collection (ATCC) were used for the following proliferation/cytotoxicity assay. These cell lines are listed as follow:
(§1) ES-2 is a human ovarian carcinoma. It was maintained in a modified McCoy's 5A medium (Gibco) and supplemented with 10% FBS (fetal bovine serum).
(§2) COLO205 is a human colon cancer-derived cell line. It was maintained in a RPMI 1640 medium (Hyclone), and supplemented with 10% heat-inactivated FBS.
(§3) PC-3 is a human prostate cancer-derived cell line. It was maintained in a Ham's F12 K medium (Gibco) and supplemented with 7% FBS.
(§4) A375 is a human malignant melanoma-derived cell line. It was maintained in a Dulbecco's modified Eagle's medium (DMEM, Hyclone) and supplemented with 10% FBS, 4 mM L-glutamine, 4.5 g/l glucose, and 1.0 mM sodium pyruvate.
(§5) A549 is a human lung cancer-derived cell line. It was maintained in a F12K medium (Gibco) and supplemented with 10% FBS.
To determine the cytotoxicity of Compound 1 or uridine on each cancer cell lines, ES-2, COLO205, PC-3, A375, and A549 cell lines were used. Each cancer cell line at a concentration of 1×10^4 cells/100 μl in each well (Falcon, MicroTest™ 96) was exposed to Compound 1, uridine or 1 μM paclitaxel (taxol, Sigma) for 72 hours in a complete medium. The Compound 1 and uridine were serially two-fold diluted from the concentration of 0.258 mg/ml.
Cellular viability was estimated by the tetrazolium dye reduction assay (XTT assay, Boehringer Mannheim). The amount of XTT reagent (a tetrazolium salt) added to the bottom wells was 100 μl/well and its concentration was 1 mg/ml. The-wells were incubated for 4 hours to allow viable cells to develop color. Absorbance (O.D.) was measured at 450 nm with the reference wavelength at 690 nm.

The target in a further assay is TNFα binding to TNFα-RI (Homo sapiens, UniProt P01375+P19438). The assay can be described thus: Inhibition of binding of biotinylated TNFα to TNFα-RI on coated microtiter plate. The procedure: 50 μl TNFα-RI at a concentration of 0.25 μg/ml was coated onto each well of a 96-well C-bottom microtiter plate (Nunc) in a 50 mM carbonate buffer (pH 9.5) at 4° C. overnight. The plate was washed 3 times with 200 μl TBST solution composed of 50 mM Tris.HCl (pH 7.35) containing 0.15 M NaCl and 0.05% Tween 20 to remove excess TNFα-RI. 200 μl/well of 0.5% BSA in PBS was added to each plate for blocking of the TNFα-RI. The reaction was carried out at 37° C. for 2 hours followed by washing 4 times with TBST to remove excess BSA.
Chain of TNFα binding to TNFα-RI (P01375 77-233 limits assumed): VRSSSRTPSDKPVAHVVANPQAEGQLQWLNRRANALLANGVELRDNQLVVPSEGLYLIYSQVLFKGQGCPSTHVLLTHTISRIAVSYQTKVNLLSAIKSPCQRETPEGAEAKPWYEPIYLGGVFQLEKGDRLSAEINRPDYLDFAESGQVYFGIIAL
Chain of TNFα binding to TNFα-RI (P19438 22-211 limits assumed): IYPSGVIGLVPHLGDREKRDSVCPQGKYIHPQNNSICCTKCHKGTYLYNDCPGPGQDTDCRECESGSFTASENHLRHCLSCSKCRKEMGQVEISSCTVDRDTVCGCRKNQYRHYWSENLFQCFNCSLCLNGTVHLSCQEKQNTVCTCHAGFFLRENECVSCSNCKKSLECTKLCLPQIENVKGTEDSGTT
Compound 1 was serially diluted in TBST solution. Biotinylated TNFα with a concentration of 0.5 μg/ml was mixed with Compound 1 solution in a volume ratio of 1:1. The reaction was allowed to proceed for 30 minutes at 37° C. with shaking at 500 rpm for allowing mixing. The mixtures were then added to the TNFα-RI coated plate, 50 μl for each well. The plate was then incubated at 37° C. for 2 hours with shaking again at 500 rpm, for competitive binding of the biotinylated TNFα and Compound 1.
Followed by washing 4 times with TBST, Extravidin-alkaline phosphatase (Sigma) diluted in TBST (1/5,000) was added to the plate, 50 μl/well. The plate was further incubated at 37° C. for 2 hours and then washed 4 times with TBST. […] After a 30-minute incubation at room temperature, absorbance at the wavelength of 405 nm was measured. […]

For assay [2], the system named is COLO205, PC-3, A375, A549 cell lines. In words: Invasive/metastatic potential of cancer cells, Boyden chemotaxis assay chambers, other four cell lines. It is filed as cell-based, human. Conditions: same concentration ranges as ES-2, data not shown. The protocol: as §2, §3, §4, §5
(§6) In this method, Boyden chemotaxis assay chambers (Costar Transwell plates) were used. Each Boyden chemotaxis assay chamber included a top chamber having a filter as the bottom side of the top chamber and a bottom well surrounding the top chamber. The bottom side of the top chamber used here was an 8 μm-pore polycarbonate filter.
0.35 ml of a medium with complete nutrition supplements as a chemo-attractant was added to each bottom well. Cancer cells (2×10^5 in 50 μl) were then plated on the filters in each of the top chambers. […]
After an 18-hour incubation, the cells in the top chambers were carefully emptied with sterile cotton buds. […] After incubating for 4 hours, absorbance (O.D.) was measured at 450 nm with the reference wavelength at 690 nm. […]

The next assay relates to ES-2 cells. The assay can be described thus: Invasive/metastatic potential of cancer cells, Boyden chemotaxis assay chambers. In kind it is cell-based, human. Conditions: 18-hour incubation; for IC50: Homo sapiens. The procedure:
as §1, §6
0.35 ml of a medium with complete nutrition supplements as a chemo-attractant was added to each bottom well. Cancer cells (2×10^5 in 50 μl) were then plated on the filters in each of the top chambers. Compound 1 or uridine was diluted in the serum-free medium to 0.536 mg/ml and then was added to the top chambers, with the volume of 50 μl/chamber. The control tests were performed with 2 μM paclitaxel (positive control) or with medium only (negative control) in the top chambers.
After an 18-hour incubation, the cells in the top chambers were carefully emptied with sterile cotton buds. 100 μl XTT reagent (1 mg/ml) was added to each of the bottom wells. After incubating for 4 hours, absorbance (O.D.) was measured at 450 nm with the reference wavelength at 690 nm. The ratio of the OD from the bottom wells to that of the OD from the bottom wells of the control tests was taken as the invasive potential. Results presented are from three different independent experiments.

Where two headings read alike, the source gives them in different places.

With `O=c1ccn(C2OC(CCO)C(O)C2O)c(=O)[nH]1` (stereo not drawn) [Compound 1, 1-[3,4-dihydroxy-5-(2-hydroxyethyl)tetrahydrofuran-2-yl]pyrimidine-2,4(1H,3H)-dione], the IC50 on MMP-2 (purified MMP-2 from ES-2 conditioned medium, biotinylated gelatin substrate, read-out: 50% inhibitory dose (IC50) on MMP-2 activity) was 150 µM; at TNFα binding to TNFα-RI (biotinylated TNFα 0.5 μg/ml mixed 1:1 with compound, TNFα-RI coated plate, read-out: 50% inhibitory dose (IC50) on TNFα binding to TNFα-RI) it was 50 µM; in the assay on ES-2 cells (XTT readout of bottom wells, read-out: 50% inhibitory dose (IC50) on invasive potential), 23 µg/mL; in the assay on ES-2 cells (printed conversion of 23 μg/ml, read-out: 50% inhibitory dose (IC50) on invasive potential, converted to molar), 90 µM. The “cellular viability (XTT assay)” value in assay [1] is given as “did not reduce cellular viability”. Besides, at TNFα binding to TNFα-RI (FIG. 6, Suramin as comparative compound), the “inhibition activity on TNFα binding to TNFα-RI compared with Suramin” value is given as “smaller than that of Suramin”. Also, the “effect on invasive potential” value in assay [2] is listed as “not significantly affected”.
For the compound `CC(=O)O[C@H]1C(=O)[C@@]2(C)[C@H]([C@H](OC(=O)c3ccccc3)[C@]3(O)C[C@H](OC(=O)[C@H](O)[C@@H](NC(=O)c4ccccc4)c4ccccc4)C(C)=C1C3(C)C)[C@]1(OC(C)=O)CO[C@@H]1C[C@@H]2O` [paclitaxel], the “inhibition of cell proliferation (XTT assay)” value in assay [1] (paclitaxel positive control) is “inhibition of cell proliferation was proportional to the concentration of paclitaxel”.
On to `O=c1ccn([C@@H]2O[C@H](CO)[C@@H](O)[C@H]2O)c(=O)[nH]1` [uridine, reference compound], for which the “inhibitory activity to MMP-2” value against MMP-2 (at the concentration of 0.82 mM, data not shown) is on record as “no inhibitory activity”. The “cellular viability (XTT assay)” value in assay [1] is “did not reduce cellular viability”. The “effect on invasive potential” value (in assay [2]; in the assay on ES-2 cells (data not shown)) was “did not show any effect” in each case.
